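Five compound concentrations were applied to cells in 96-well plates for 48 hours; endpoints were derived by simple linear interpolation of the resulting dose-response curve. GI50 = concentration required for 50% inhibition of growth.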 Activity calls are given as the source filed them. No stated cut-off is given here; in the data, active = GI50 up to about 1.1 µM and inactive = higher.
Tests used:
Experiment in all cases: NCI anticancer screen, dose series, 48 h
[1] = system: UACC-62
[2] = system: 786-0
[3] = system: A549
[4] = system: DMS-273
[5] = system: U-251
[6] = system: SF-295
[7] = system: HCC 2998
[8] = system: OVCAR-8
[9] = system: NCI-H23
[10] = system: HCT-116
[11] = system: SNB-19
[12] = system: IGROV-1
[13] = system: CCRF-CEM
[14] = system: M19-MEL
[15] = system: LXFL 529
[16] = system: DMS-114
[17] = system: HOP-92
[18] = system: HCT-15
[19] = system: MOLT-4
[20] = system: SK-MEL-5
[21] = system: SK-MEL-2
[22] = system: HOP-62
[23] = system: DLD-1
[24] = system: K562
[25] = system: LOX IMVI
[26] = system: Malme-3M
[27] = system: COLO 205
[28] = system: SK-MEL-28
[29] = system: TK-10
[30] = system: HT-29
[31] = system: OVCAR-5
[32] = system: OVCAR-3
[33] = system: CAKI-1
[34] = system: HL-60
[35] = system: RXF 393
[36] = system: A498
[37] = system: HOP-18
[38] = system: RPMI-8226
[39] = system: M14
[40] = system: UO-31
[41] = system: OVCAR-4
[42] = system: SF-539
[43] = system: SW-620
[44] = system: KM12
[45] = system: SNB-75
[46] = system: SF-268
[47] = system: ACHN
[48] = system: SR
[49] = system: NCI-H522
[50] = system: SK-OV-3
[51] = system: SN12C
[52] = system: NCI-H460
[53] = system: NCI-H226
[54] = system: EKVX
[55] = system: UACC-257
[56] = system: KM-20L2
[57] = system: SNB-78

Compound: Cc1cn(C2OC(C)(CO)C(O)C2O)c(=O)[nH]c1=O (configuration not stated)
- GI50 [1]: > 100 µM (inactive)
- GI50 [2]: > 100 µM (inactive)
- GI50 [3]: > 100 µM (inactive)
- GI50 [4]: > 100 µM (inactive)
- GI50 [5]: > 100 µM (inactive)
- GI50 [6]: > 100 µM (inactive)
- GI50 [7]: > 100 µM (inactive)
- GI50 [8]: > 100 µM (inactive)
- GI50 [9]: > 100 µM (inactive)
- GI50 [10]: > 100 µM (inactive)
- GI50 [11]: > 100 µM (inactive)
- GI50 [12]: > 100 µM (inactive)
- GI50 [13]: > 100 µM (inactive)
- GI50 [14]: > 100 µM (inactive)
- GI50 [15]: > 100 µM (inactive)
- GI50 [16]: > 100 µM (inactive)
- GI50 [17]: > 100 µM (inactive)
- GI50 [18]: > 100 µM
- GI50 [19]: > 100 µM (inactive)
- GI50 [20]: > 100 µM (inactive)
- GI50 [21]: > 100 µM (inactive)
- GI50 [22]: > 100 µM (inactive)
- GI50 [23]: > 100 µM (inactive)
- GI50 [24]: > 100 µM (inactive)
- GI50 [25]: > 100 µM (inactive)
- GI50 [26]: > 100 µM (inactive)
- GI50 [27]: > 100 µM (inactive)
- GI50 [28]: > 100 µM (inactive)
- GI50 [29]: > 100 µM (inactive)
- GI50 [30]: > 100 µM (inactive)
- GI50 [31]: > 100 µM (inactive)
- GI50 [32]: > 100 µM (inactive)
- GI50 [33]: > 100 µM (inactive)
- GI50 [34]: > 10 µM (inactive)
- GI50 [35]: > 100 µM (inactive)
- GI50 [36]: > 100 µM (inactive)
- GI50 [37]: > 100 µM (inactive)
- GI50 [38]: > 100 µM (inactive)
- GI50 [39]: > 100 µM (inactive)
- GI50 [40]: > 100 µM (inactive)
- GI50 [41]: > 100 µM (inactive)
- GI50 [42]: > 100 µM (inactive)
- GI50 [43]: > 100 µM (inactive)
- GI50 [44]: > 100 µM (inactive)
- GI50 [45]: > 100 µM (inactive)
- GI50 [46]: > 100 µM (inactive)
- GI50 [47]: > 100 µM (inactive)
- GI50 [48]: > 100 µM (inactive)
- GI50 [49]: > 100 µM (inactive)
- GI50 [50]: > 100 µM (inactive)
- GI50 [51]: > 100 µM (inactive)
- GI50 [52]: > 100 µM (inactive)

Compound: C=C1CCC2C(C)(CO)C(O)CCC2(C)C1C/C=C1/CCOC1=O (configuration not stated)
- GI50 [1]: > 100 µM (inactive)
- GI50 [2]: > 100 µM (inactive)
- GI50 [3]: > 100 µM (inactive)
- GI50 [4]: > 100 µM (inactive)
- GI50 [53]: > 100 µM (inactive)
- GI50 [5]: > 100 µM (inactive)
- GI50 [6]: > 100 µM (inactive)
- GI50 [7]: > 100 µM (inactive)
- GI50 [8]: > 100 µM (inactive)
- GI50 [9]: > 100 µM (inactive)
- GI50 [10]: > 100 µM (inactive)
- GI50 [11]: > 100 µM (inactive)
- GI50 [12]: > 100 µM (inactive)
- GI50 [13]: > 100 µM (inactive)
- GI50 [14]: > 100 µM (inactive)
- GI50 [15]: > 100 µM (inactive)
- GI50 [17]: > 100 µM (inactive)
- GI50 [54]: > 100 µM (inactive)
- GI50 [18]: > 100 µM
- GI50 [19]: > 100 µM (inactive)
- GI50 [20]: > 100 µM (inactive)
- GI50 [21]: > 100 µM (inactive)
- GI50 [22]: > 100 µM (inactive)
- GI50 [55]: > 100 µM (inactive)
- GI50 [23]: > 100 µM (inactive)
- GI50 [24]: > 100 µM (inactive)
- GI50 [25]: > 100 µM (inactive)
- GI50 [26]: > 100 µM (inactive)
- GI50 [27]: > 100 µM (inactive)
- GI50 [29]: > 100 µM (inactive)
- GI50 [30]: > 100 µM (inactive)
- GI50 [31]: > 100 µM (inactive)
- GI50 [32]: > 100 µM (inactive)
- GI50 [33]: > 100 µM (inactive)
- GI50 [34]: > 100 µM (inactive)
- GI50 [36]: > 100 µM (inactive)
- GI50 [37]: > 100 µM (inactive)
- GI50 [38]: > 100 µM (inactive)
- GI50 [39]: > 100 µM (inactive)
- GI50 [40]: > 100 µM (inactive)
- GI50 [41]: > 100 µM (inactive)
- GI50 [42]: > 100 µM (inactive)
- GI50 [43]: > 100 µM (inactive)
- GI50 [44]: > 100 µM (inactive)
- GI50 [45]: > 100 µM (inactive)
- GI50 [47]: > 100 µM (inactive)
- GI50 [48]: > 100 µM (inactive)
- GI50 [49]: 31.3 µM (inactive)
- GI50 [50]: > 100 µM (inactive)
- GI50 [51]: > 100 µM (inactive)
- GI50 [56]: > 100 µM (inactive)
- GI50 [52]: > 100 µM (inactive)

Compound: O=C(Nc1ccc([N+](=O)[O-])cc1Cl)c1cccc([N+](=O)[O-])c1O
- GI50 [57]: 2.3 µM (inactive)
- GI50 [3]: 2.3 µM (inactive)
- GI50 [53]: 2.84 µM (inactive)
- GI50 [5]: 2.75 µM (inactive)
- GI50 [6]: 1.92 µM (inactive)
- GI50 [7]: 1.69 µM (inactive)
- GI50 [8]: 2.61 µM (inactive)
- GI50 [9]: 1.12 µM (inactive)
- GI50 [11]: 3.09 µM (inactive)
- GI50 [13]: 1.13 µM (inactive)
- GI50 [15]: 1.09 µM (active)
- GI50 [54]: 2.16 µM (inactive)
- GI50 [19]: 1.88 µM (inactive)
- GI50 [21]: 1.6 µM (inactive)
- GI50 [55]: 2.02 µM (inactive)
- GI50 [24]: 1.12 µM (inactive)
- GI50 [25]: 1.71 µM (inactive)
- GI50 [26]: 0.552 µM (active)
- GI50 [28]: 1.6 µM (inactive)
- GI50 [30]: 3.04 µM (inactive)
- GI50 [31]: 3.02 µM (inactive)
- GI50 [33]: 1.83 µM (inactive)
- GI50 [34]: 1.87 µM (inactive)
- GI50 [36]: 0.668 µM (active)
- GI50 [37]: 0.109 µM (active)
- GI50 [38]: 0.92 µM (active)
- GI50 [40]: 1.45 µM (inactive)
- GI50 [41]: 2.82 µM (inactive)
- GI50 [42]: 2.05 µM (inactive)
- GI50 [43]: 2.59 µM (inactive)
- GI50 [44]: 3.11 µM (inactive)
- GI50 [46]: 2.7 µM (inactive)
- GI50 [47]: 2.52 µM (inactive)
- GI50 [48]: 2.9 µM (inactive)
- GI50 [49]: 0.755 µM (active)
- GI50 [51]: 1.48 µM (inactive)
- GI50 [56]: 2.74 µM (inactive)
- GI50 [52]: 2.21 µM (inactive)

From ChEMBL document CHEMBL1201862, “PubChem BioAssay data set” (2004)
